From BindingDB's records for doi:10.1021/jm00090a003 (Universit&#233, 1992)
Several values for one entry are separate records, joined by “and”; a condition that tells them apart may be missing. Identical values can stand only once.

Legend:
[1] = biological target: Calcitonin gene-related peptide (CGRP) receptor binding sites; experiment: ChEBML_42602
[2] = biological target: Calcitonin gene-related peptide type 1 receptor (Cavia porcellus); experiment: Binding affinity against [125I]-hCalcitonin gene-related peptide type receptor binding sites in guinea pig atrium membrane

IC50 [1] | IC50 [2] | Molecule
14.5 nM | 11 nM | H-VTHRAAGLLSRSGGVVKNNFVPTNVGSKAF-NH2
 | 22 nM and 25 nM | H-VTHALAGLLSRSGGVVKNNFVPTNVGSKAF-NH2
9 nM |  | CC(C)C[C@H](NC(=O)CNC(=O)[C@H](C)NC(=O)[C@H](CC(C)C)NC(=O)[C@H](CCCN=C(N)N)NC(=O)[C@@H](N)Cc1c[nH]cn1)C(=O)N[C@@H](CC(C)C)C(=O)N[C@@H](CO)C(=O)N[C@@H](CCCN=C(N)N)C(=O)N[C@@H](CO)C(=O)NCC(=O)NCC(=O)N[C@H](C(=O)N[C@H](C(=O)N[C@@H](CCCCN)C(=O)N[C@@H](CC(N)=O)C(=O)N[C@@H](CC(N)=O)C(=O)N[C@@H](Cc1ccccc1)C(=O)N[C@H](C(=O)N1CCC[C@H]1C(=O)N[C@H](C(=O)N[C@@H](CC(N)=O)C(=O)N[C@H](C(=O)NCC(=O)N[C@@H](CO)C(=O)N[C@@H](CCCCN)C(=O)N[C@@H](C)C(=O)N[C@@H](Cc1ccccc1)C(N)=O)C(C)C)[C@@H](C)O)C(C)C)C(C)C)C(C)C
